These are literature values, as cited in US12031126B2, “Methods and compositions for simultaneous editing of both strands of a target double-stranded nucleotide sequence” (The Broad Institute, Inc., priority 2020, dated 2024).

One data set addresses FKBP12 F36V (Homo sapiens, UniProt P62942, F37V). Conditions: cited from earlier work.
Another data set concerns the target FKBP12 (Homo sapiens, UniProt P62942). To be noted: cited from earlier work.

Sequence of FKBP12 F36V (P62942 whole entry F37V): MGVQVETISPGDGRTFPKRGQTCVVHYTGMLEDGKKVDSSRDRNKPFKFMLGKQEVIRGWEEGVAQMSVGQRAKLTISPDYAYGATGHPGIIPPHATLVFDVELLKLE
Sequence of FKBP12 (P62942 whole entry): as the sequence (P62942 whole entry F37V) above, with V37F counted along it

Usually Kd stands for the concentration at which binding is half-saturated. In the case of `CC[C@H](C(=O)N1CCCC[C@H]1C(=O)O[C@H](CCc1ccc(OC)c(OC)c1)c1cccc(OCC(=O)O)c1)c1cc(OC)c(OC)c(OC)c1` [AP1867], the Kd was 0.094 nM at FKBP12 F36V and 67 nM on FKBP12.
